Measured values as given in ChEMBL document CHEMBL1156090, “Design and synthesis of cell potent BACE-1 inhibitors: structure-activity relationship of P1' substituents” (Bioorg Med Chem Lett, 2009).

Columns and labels:
[1] = target: Cathepsin D (Homo sapiens, UniProt P07339)
Description: Inhibition of cathepsin D assessed as reduction in polarization after 110 mins by oregon green based fluorescence polarization assay

[2] = target: Beta-secretase 1 (Homo sapiens, UniProt P56817)
Description: Inhibition of recombinant BACE1 expressed in Escherichia coli after 3 hrs by oregon green based fluorescence polarization assay

[3] = tested on: HEK293; assay: […] HEK293 cells expressing swedish-mutant APP FAD isoform; type: functional, Homo sapiens; details: read-out: ED50 (the source's name)
[4] = Apparent permeability from apical side to basolateral side in MDCK2 cells at 5 uM after 120 mins by LC/MS/MS; type: ADME, cell-based, Canis lupus familiaris, MDCK-II; details: dog, MDCK

Sequence of Cathepsin D (P07339 65-162 limits assumed): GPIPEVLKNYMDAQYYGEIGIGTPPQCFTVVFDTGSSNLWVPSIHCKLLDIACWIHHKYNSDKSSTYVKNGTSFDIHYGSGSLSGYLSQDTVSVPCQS
Sequence of Cathepsin D (P07339 169-412 limits assumed): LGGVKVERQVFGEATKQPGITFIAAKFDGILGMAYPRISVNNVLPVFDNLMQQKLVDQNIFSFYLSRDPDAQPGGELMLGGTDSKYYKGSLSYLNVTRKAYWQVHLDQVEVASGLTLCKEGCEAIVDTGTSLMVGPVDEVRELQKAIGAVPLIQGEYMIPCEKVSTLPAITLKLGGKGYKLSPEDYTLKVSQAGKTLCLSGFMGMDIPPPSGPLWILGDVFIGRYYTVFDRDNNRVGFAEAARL
Sequence of Beta-secretase 1 (P56817 whole entry, canonical isoform): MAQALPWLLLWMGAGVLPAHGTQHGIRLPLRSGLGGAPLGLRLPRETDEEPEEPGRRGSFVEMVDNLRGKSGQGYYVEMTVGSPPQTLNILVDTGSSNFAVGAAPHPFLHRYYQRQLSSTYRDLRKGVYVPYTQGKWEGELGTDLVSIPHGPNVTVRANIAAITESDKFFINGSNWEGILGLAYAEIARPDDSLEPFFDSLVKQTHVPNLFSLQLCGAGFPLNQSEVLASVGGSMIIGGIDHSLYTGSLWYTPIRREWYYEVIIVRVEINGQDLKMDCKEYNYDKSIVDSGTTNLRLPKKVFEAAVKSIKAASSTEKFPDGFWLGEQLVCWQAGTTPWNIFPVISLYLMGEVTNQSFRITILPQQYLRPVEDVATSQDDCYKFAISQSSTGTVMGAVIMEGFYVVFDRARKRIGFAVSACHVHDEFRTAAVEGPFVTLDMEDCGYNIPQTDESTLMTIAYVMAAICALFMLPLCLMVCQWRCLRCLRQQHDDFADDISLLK

Row | SMILES | IC50 [1] | IC50 [2] | EC50 ([3]; Homo sapiens, HEK293) | Papp A→B at 2 h, 5 µM [4] | EC50 [3]
1 | CC(=O)N[C@@H](Cc1cc(F)cc(F)c1)[C@H](O)CNC1(c2cccc(C(C)(C)C)c2)CCCN(C(N)=O)C1 (mixture of isomers) | 90 nM | 330 nM | 210 nM | – | –
2 | CC(=O)N[C@@H](Cc1cc(F)cc(F)c1)[C@H](O)CNC1(c2cccc(-n3cccn3)c2)CCCOC1 (mixture of isomers) | 170 nM | 270 nM | 91 nM | – | –
3 | CC(=O)N[C@@H](Cc1cc(F)cc(F)c1)[C@H](O)CN[C@@]1(c2cccc(C(C)(C)C)c2)CC[C@H](Nc2ccccn2)NC1 | 4400 nM | 73 nM | 21 nM | – | –
4 | CC(=O)N[C@@H](Cc1cc(F)cc(F)c1)[C@H](O)CNC1(c2cccc(C(C)(C)C)c2)CCC(=O)NC1 (mixture of isomers) | 180 nM | 47 nM | 76 nM | – | –
5 | CC(=O)N[C@@H](Cc1cc(F)cc(F)c1)[C@H](O)CN[C@@]1(c2cccc(C(C)(C)C)c2)CC[C@H](NO)NC1 | 3900 nM | 19 nM | 0.96 nM | – | –
6 | CC(=O)N[C@@H](Cc1cc(F)cc(F)c1)[C@H](O)CNC1(c2cccc(-n3cccn3)c2)CCOC1 (mixture of isomers) | 4900 nM | 2400 nM | > 1000 nM | – | –
7 | CC(=O)N[C@@H](Cc1cc(F)cc(F)c1)[C@H](O)CNC1(c2cccc(C(C)(C)C)c2)CCOCC1 (mixture of isomers) | 230 nM | 61 nM | – | 8.1 ×10⁻⁶ cm/s | –
8 | CC(=O)N[C@@H](Cc1cc(F)cc(F)c1)[C@H](O)CN[C@]1(c2cccc(C(C)(C)C)c2)CC[C@@H](CCO)CC1 | > 10000 nM | > 10000 nM | > 1000 nM | – | –
9 | CC(=O)N[C@@H](Cc1cc(F)cc(F)c1)[C@H](O)CN[C@]1(c2cccc(C(C)(C)C)c2)CC[C@@H](CO)CC1 | 330 nM | 38 nM | 31 nM | – | –
10 | CC(=O)N[C@@H](Cc1cc(F)cc(F)c1)[C@H](O)CNC1(c2cccc(C(C)(C)C)c2)CCCN(C(=O)OCc2ccccc2)C1 (mixture of isomers) | 3.3 nM | 860 nM | 780 nM | – | –
11 | CC(=O)N[C@@H](Cc1cc(F)cc(F)c1)[C@H](O)CNC1(c2cccc(C(C)(C)C)c2)CCNCC1 | > 10000 nM | 4700 nM | 710 nM | – | –
12 | CC(=O)N[C@@H](Cc1cc(F)cc(F)c1)[C@H](O)CNC1(c2cccc(C(C)(C)C)c2)CCNC(=O)C1 (single isomer, unassigned) | 330 nM | 18 nM | 21 nM | – | –
13 | CC(=O)N[C@@H](Cc1cc(F)cc(F)c1)[C@H](O)CNC1(c2cccc(C(C)(C)C)c2)CCC(=O)CC1 | 450 nM | 120 nM | 5.6 nM | – | –
14 | CO[C@H]1CC[C@@](NC[C@@H](O)[C@H](Cc2cc(F)cc(F)c2)NC(C)=O)(c2cccc(C(C)(C)C)c2)CN1 | 130 nM | 140 nM | 13 nM | – | –
15 | CC(=O)N[C@@H](Cc1cc(F)cc(F)c1)[C@H](O)CN[C@]1(c2cccc(C(C)(C)C)c2)CC[C@@H](O)CC1 | 1400 nM | 24 nM | 11 nM | 0.3 ×10⁻⁶ cm/s | –
16 | CC(=O)N[C@@H](Cc1cc(F)cc(F)c1)[C@H](O)CNC1(c2cccc(C(C)(C)C)c2)CCc2n[nH]cc2C1 (mixture of isomers) | 300 nM | – | 2.1 nM | 1.6 ×10⁻⁶ cm/s | –
17 | CC(=O)N[C@@H](Cc1cc(F)cc(F)c1)[C@H](O)CN[C@@]1(c2cccc(C(C)(C)C)c2)CC[C@H](C#N)NC1 | 640 nM | 380 nM | 37 nM | – | –
18 | CC(=O)N[C@@H](Cc1cc(F)cc(F)c1)[C@H](O)CNC1(c2cccc(C(C)(C)C)c2)CCCNC1 (mixture of isomers) | 2330 nM | > 10000 nM | > 1000 nM | – | –
19 | CC(=O)N[C@@H](Cc1cc(F)cc(F)c1)[C@H](O)CN[C@@]1(c2cccc(C(C)(C)C)c2)CC[C@H](NC=O)NC1 | > 10000 nM | 210 nM | 2.4 nM | – | –

Row | SMILES | IC50 [1] | IC50 [2] | EC50 ([3]; Homo sapiens, HEK293) | Papp A→B at 2 h, 5 µM [4] | EC50 [3]
20 | CC(=O)N[C@@H](Cc1cc(F)cc(F)c1)[C@H](O)CNC1(c2cccc(C(C)(C)C)c2)CCc2nc(C)ncc2C1 (mixture of isomers) | 910 nM | 93 nM | 15 nM | – | –
21 | CC(=O)N[C@@H](Cc1cc(F)cc(F)c1)[C@H](O)CN[C@@]1(c2cccc(C(C)(C)C)c2)CC[C@H](N(O)C(C)=O)NC1 | 2300 nM | 240 nM | 1.3 nM | – | –
22 | CC(=O)N[C@H]1CC[C@@](NC[C@@H](O)[C@H](Cc2cc(F)cc(F)c2)NC(C)=O)(c2cccc(C(C)(C)C)c2)CN1 | > 10000 nM | 350 nM | 48 nM | – | –
23 | CS[C@H]1CC[C@@](NC[C@@H](O)[C@H](Cc2cc(F)cc(F)c2)NC(C)=O)(c2cccc(C(C)(C)C)c2)CN1 | 84 nM | 24 nM | 7.5 nM | – | –
24 | CC(=O)N[C@@H](Cc1cc(F)cc(F)c1)[C@H](O)CNC1(c2cccc(C(C)(C)C)c2)CCCC1 (mixture of isomers) | 130 nM | 220 nM | > 100 nM | – | –
25 | CC(=O)N[C@@H](Cc1cc(F)cc(F)c1)[C@H](O)CN[C@]1(c2cccc(C(C)(C)C)c2)CC[C@H](O)CC1 | > 10000 nM | 9200 nM | 870 nM | – | –
26 | CC(=O)N[C@@H](Cc1cc(F)cc(F)c1)[C@H](O)CNC1(c2cccc(C(C)(C)C)c2)CCN(C(N)=O)CC1 | 4300 nM | 380 nM | > 1000 nM | – | –
27 | CC(=O)N[C@@H](Cc1cc(F)cc(F)c1)[C@H](O)CNC1(c2cccc(C(C)(C)C)c2)CCc2nc(N)ncc2C1 (mixture of isomers) | 210 nM | 14 nM | 1.8 nM | – | –
28 | CC(=O)N[C@@H](Cc1cc(F)cc(F)c1)[C@H](O)CN[C@@]1(c2cccc(C(C)(C)C)c2)CC[C@H](Nc2cccnc2)NC1 | 9800 nM | 500 nM | – | – | –
29 | CON[C@H]1CC[C@@](NC[C@@H](O)[C@H](Cc2cc(F)cc(F)c2)NC(C)=O)(c2cccc(C(C)(C)C)c2)CN1 | 530 nM | 100 nM | 7.6 nM | – | –
30 | CC(=O)N[C@@H](Cc1cc(F)cc(F)c1)[C@H](O)CNC1(c2cccc(C(C)(C)C)c2)CCNC(=O)C1 (stereo in doubt; 16) | 1100 nM | 19 nM | – | – | 23 nM
31 | CC(=O)N[C@@H](Cc1cc(F)cc(F)c1)[C@H](O)CN[C@@]1(c2cccc(C(C)(C)C)c2)CC[C@H](NS(C)(=O)=O)NC1 | 7200 nM | 400 nM | 5.9 nM | – | –
32 | CC(=O)N[C@@H](Cc1cc(F)cc(F)c1)[C@H](O)CNC1(c2cccc(C(C)(C)C)c2)CCCN(C(C)=O)C1 (mixture of isomers) | 410 nM | 1300 nM | 560 nM | – | –
33 | CC(=O)N[C@@H](Cc1cc(F)cc(F)c1)[C@H](O)CN[C@@]1(c2cccc(C(C)(C)C)c2)CCC(NO)=NC1 | 430 nM | 8.8 nM | 0.89 nM | – | –
34 | CC(=O)N[C@@H](Cc1cc(F)cc(F)c1)[C@H](O)CN[C@@]1(c2cccc(C(C)(C)C)c2)CC[C@H](S(C)(=O)=O)NC1 | 2300 nM | 210 nM | 100 nM | – | –
35 | COC(=O)N[C@H]1CC[C@@](NC[C@@H](O)[C@H](Cc2cc(F)cc(F)c2)NC(C)=O)(c2cccc(C(C)(C)C)c2)CN1 | 2000 nM | 240 nM | 16 nM | – | –
36 | CC(=O)N[C@@H](Cc1cc(F)cc(F)c1)[C@H](O)CN[C@@]1(c2cccc(C(C)(C)C)c2)CC[C@H](C(F)(F)F)NC1 | 28 nM | 33 nM | 54 nM | – | –
37 | CC(=O)N[C@@H](Cc1cc(F)cc(F)c1)[C@H](O)CNC1(c2cccc(C(C)(C)C)c2)CCCN(O)C1 (mixture of isomers) | 670 nM | 400 nM | 45 nM | – | –
